Like-named read-outs stand apart in the source and are kept apart here.
Columns and labels:
FMP 37 SEQ ID No 9 = FMP 37 SEQ ID No 9 (Blepharisma japonicum, UniProt A8R3H6); test: Determination of HPPD activity in presence of N-(1,3,4-Oxadiazol-2-yl)arylcarboxamides (pI50); assay type: biochemical; conditions: negative log of molar concentration; inhibitor 0.1 to 100 μM; room temperature; 600 μM HPP
Experimental: (§1) HPPD activity was measured at room temperature by adding appropriate amounts of HPPD to a solution of 200 mM Tris-HCl pH 7.6, 10 mM ascorbate, 20 μM FeSO4, 650 units of catalase, 8 μg HGA dioxygenase (HGA: homogentisate) and 600 μM HPP in a total volume of 1 ml. Initial reaction rates in the absence or presence of inhibitors were determined from the increase in absorbance at 318 nm due to the formation of maleylacetoacetate (ϵ318=11,900 M−1 cm−1). pI50-values (the negative log values of the concentration of inhibitor necessary to inhibit 50% of the enzyme activity in molar concentration were determined from dose-response plots of HPPD activity versus inhibitor concentrations tested (0.1 to 100 μM) using the 4 Parameter Logistic Model or Sigmoidal Dose-Response Model of the ID Business Solutions Ltd. XLfit software suite. Due to the UV absorption of the HPPD inhibitors tested, inhibitor concentrations >100 μM could not be tested. In cases, the symbol “>” is used this means that the value was far higher than the one indicated but could not be precisely calculated within in the range of concentration of inhibitor tested.
(§2) In the 1st column of Table 8, the chemical compound employed in the assay is named (according to the numbering of the Tables 1 to 7, above). In columns 2, 3, 4, and 5 the pI50-values of the corresponding chemical compounds against various HPPD enzymes (name and SEQ ID Nos are indicated, respectively) are given.

Avena HPPD SEQ ID No 2 = Avena HPPD SEQ ID No 2 (Avena sativa, UniProt A0ACD5V6K6); test: as above; assay type: biochemical; conditions: negative log of molar concentration; inhibitor 0.1 to 100 μM; room temperature; 600 μM HPP
Experimental: as §1, §2

wild type soybean Thorne = assay type: in vivo; conditions: 14 days after treatment, total 4
[1] = biological target: PfHPPD Evo 40 SEQ ID No 27 (Pseudomonas sp., UniProt P80064, A172V/A339E/A53E/D148E/D45N/E105D/E287Q/E300V/E334P/F143Y/G286D/G335S/H150N/H254A/H63N/I158V/I187A/I249V/K92N/L18F/N24G/N280D/S245T/S257K/S301E/T205S/V65I); test: biochemical; design: species or system Pseudomonas fluorescens
[2] = system: T2 soybean events expressing PfHPPD-Evo40; assay type: in vivo; conditions: 14 days after treatment
[3] = system: T3 cotton events expressing PfHPPD-Evo41; assay type: in vivo; conditions: 200 g Al/ha, post-emergence V3, scored after 14 days, field
[4] = system: T2 soybean events expressing PfHPPD-Evo33; assay type: in vivo; conditions: 14 days after treatment
wild type soybean Merlin = assay type: in vivo; conditions: 14 days after treatment, total 4
[5] = biological target: PfHPPD Evo 41 SEQ ID No 29 (Pseudomonas sp., UniProt P80064, A172V/A339Q/A53E/D148E/D45N/E105D/E287Q/E300V/E334P/F143Y/G286D/G335W/H150N/H254A/H63N/I158V/I187A/I249V/K338A/K92N/L18F/N24G/N280D/S245T/S257K/S301E/T205S/V65I); test: biochemical; design: species or system Pseudomonas fluorescens
[6] = system: T2 soybean events expressing PfHPPD-Evo41; assay type: in vivo; conditions: 14 days after treatment

FMP 37 SEQ ID No 9, sequence (A8R3H6 entry or part of it): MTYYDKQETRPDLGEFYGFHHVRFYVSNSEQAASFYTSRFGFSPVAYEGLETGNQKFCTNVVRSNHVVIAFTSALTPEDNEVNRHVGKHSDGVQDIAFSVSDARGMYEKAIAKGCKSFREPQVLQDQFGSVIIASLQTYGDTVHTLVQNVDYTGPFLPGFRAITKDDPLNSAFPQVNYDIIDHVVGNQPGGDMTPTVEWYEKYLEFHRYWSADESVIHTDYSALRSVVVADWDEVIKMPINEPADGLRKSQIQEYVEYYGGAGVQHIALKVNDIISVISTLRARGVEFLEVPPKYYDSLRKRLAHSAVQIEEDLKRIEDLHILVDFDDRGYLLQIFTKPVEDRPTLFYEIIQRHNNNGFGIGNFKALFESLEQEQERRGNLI
PfHPPD Evo 41 SEQ ID No 29, sequence (P80064 1-354 with tags or gaps with the stated changes limits assumed): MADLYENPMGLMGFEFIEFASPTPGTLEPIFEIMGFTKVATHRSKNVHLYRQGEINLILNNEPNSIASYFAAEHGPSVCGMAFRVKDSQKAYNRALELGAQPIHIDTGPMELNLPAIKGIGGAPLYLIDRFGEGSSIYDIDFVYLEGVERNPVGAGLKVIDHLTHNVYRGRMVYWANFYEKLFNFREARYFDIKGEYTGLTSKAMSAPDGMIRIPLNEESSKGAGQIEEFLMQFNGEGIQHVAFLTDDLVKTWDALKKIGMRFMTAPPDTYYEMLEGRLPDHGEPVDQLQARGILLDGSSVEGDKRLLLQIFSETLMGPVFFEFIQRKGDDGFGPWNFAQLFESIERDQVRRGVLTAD
Avena HPPD SEQ ID No 2, sequence (A0ACD5V6K6 entry or part of it): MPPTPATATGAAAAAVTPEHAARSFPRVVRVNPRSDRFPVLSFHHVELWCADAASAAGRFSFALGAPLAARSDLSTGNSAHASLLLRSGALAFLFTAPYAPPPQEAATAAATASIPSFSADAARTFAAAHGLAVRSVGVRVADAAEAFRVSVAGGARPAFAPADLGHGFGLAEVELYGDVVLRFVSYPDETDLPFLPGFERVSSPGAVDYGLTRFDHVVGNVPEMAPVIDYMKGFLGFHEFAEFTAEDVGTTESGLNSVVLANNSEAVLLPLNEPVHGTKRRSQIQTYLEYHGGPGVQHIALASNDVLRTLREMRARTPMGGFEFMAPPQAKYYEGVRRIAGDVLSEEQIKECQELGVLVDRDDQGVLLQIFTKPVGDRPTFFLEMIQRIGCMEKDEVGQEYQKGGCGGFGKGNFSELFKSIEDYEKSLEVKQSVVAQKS
PfHPPD Evo 40 SEQ ID No 27, sequence (P80064 1-354 with tags or gaps with the stated changes limits assumed): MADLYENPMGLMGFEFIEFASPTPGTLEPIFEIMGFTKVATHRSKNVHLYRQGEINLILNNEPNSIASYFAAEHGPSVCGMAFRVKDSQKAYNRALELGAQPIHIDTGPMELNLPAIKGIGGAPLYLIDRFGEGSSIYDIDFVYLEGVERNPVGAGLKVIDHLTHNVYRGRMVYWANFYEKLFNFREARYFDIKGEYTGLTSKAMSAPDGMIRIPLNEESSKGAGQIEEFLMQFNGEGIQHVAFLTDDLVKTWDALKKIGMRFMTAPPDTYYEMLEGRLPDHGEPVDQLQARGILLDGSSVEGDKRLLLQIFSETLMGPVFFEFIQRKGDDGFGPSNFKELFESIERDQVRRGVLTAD

Cc1nnc(NC(=O)c2ccc(C(F)(F)F)c(S(C)(=O)=O)c2C)o1 [Compound 2-145]
IC50 (FMP 37 SEQ ID No 9): 10 µM
IC50 (Avena HPPD SEQ ID No 2): 1.58 µM
Number of plants categorized herbicide tolerance “0” (marginal; 41%-100% damaged leaf area) (wild type soybean Thorne; Thorne (wt), 6.25 g Al/ha): 4
Number of plants categorized herbicide tolerance “1” (moderate; 26%-40% damaged leaf area) (wild type soybean Thorne; Thorne (wt), 6.25 g Al/ha): 0
Number of plants categorized herbicide tolerance “2” (good; 16%-25% damaged leaf area) (wild type soybean Thorne; Thorne (wt), 6.25 g Al/ha): 0
Number of plants categorized herbicide tolerance “3” (high; less than or equal to 15% damaged leaf area) (wild type soybean Thorne; Thorne (wt), 6.25 g Al/ha): 0
Number of plants categorized herbicide tolerance “0” (marginal; 41%-100% damaged leaf area) (wild type soybean Thorne; Thorne, 25 g Al/ha): 4
Number of plants categorized herbicide tolerance “1” (moderate; 26%-40% damaged leaf area) (wild type soybean Thorne; Thorne, 25 g Al/ha): 0
Number of plants categorized herbicide tolerance “2” (good; 16%-25% damaged leaf area) (wild type soybean Thorne; Thorne, 25 g Al/ha): 0
Number of plants categorized herbicide tolerance “3” (high; less than or equal to 15% damaged leaf area) (wild type soybean Thorne; Thorne, 25 g Al/ha): 0
IC50 [1]: 5.01 µM
Number of plants categorized herbicide tolerance “0” (marginal; 41%-100% damaged leaf area) ([2]; 6.25 g Al/ha, total 8): 0
Number of plants categorized herbicide tolerance “1” (moderate; 26%-40% damaged leaf area) ([2]; 6.25 g Al/ha, total 8): 0
Number of plants categorized herbicide tolerance “2” (good; 16%-25% damaged leaf area) ([2]; 6.25 g Al/ha, total 8): 0
Number of plants categorized herbicide tolerance “3” (high; less than or equal to 15% damaged leaf area) ([2]; 6.25 g Al/ha, total 8): 8
Number of plants categorized herbicide tolerance “0” (marginal; 41%-100% damaged leaf area) ([2]; 25 g Al/ha, total 12): 0
Number of plants categorized herbicide tolerance “1” (moderate; 26%-40% damaged leaf area) ([2]; 25 g Al/ha, total 12): 0
Number of plants categorized herbicide tolerance “2” (good; 16%-25% damaged leaf area) ([2]; 25 g Al/ha, total 12): 0
Number of plants categorized herbicide tolerance “3” (high; less than or equal to 15% damaged leaf area) ([2]; 25 g Al/ha, total 12): 12
Number of plants categorized herbicide tolerance “0” (marginal; 41%-100% damaged leaf area) ([2]; 50 g Al/ha, total 4): 0
Number of plants categorized herbicide tolerance “1” (moderate; 26%-40% damaged leaf area) ([2]; 50 g Al/ha, total 4): 0
Number of plants categorized herbicide tolerance “2” (good; 16%-25% damaged leaf area) ([2]; 50 g Al/ha, total 4): 0
Number of plants categorized herbicide tolerance “3” (high; less than or equal to 15% damaged leaf area) ([2]; 50 g Al/ha, total 4): 4
Number of plants categorized herbicide tolerance “0” (marginal; 41%-100% damaged leaf area) ([2]; 75 g Al/ha, total 4): 0
Number of plants categorized herbicide tolerance “1” (moderate; 26%-40% damaged leaf area) ([2]; 75 g Al/ha, total 4): 0
Number of plants categorized herbicide tolerance “2” (good; 16%-25% damaged leaf area) ([2]; 75 g Al/ha, total 4): 0
Number of plants categorized herbicide tolerance “3” (high; less than or equal to 15% damaged leaf area) ([2]; 75 g Al/ha, total 4): 4
Average maximum phytotoxicity scoring ([3]; cotton event Evo41/1): 3 (“3” = high tolerance; 0%-10% damaged leaf area)
Average maximum phytotoxicity scoring ([3]; cotton event Evo41/2): 3 (“3” = high tolerance; 0%-10% damaged leaf area)
Average maximum phytotoxicity scoring ([3]; cotton event Evo41/3): 3 (“3” = high tolerance; 0%-10% damaged leaf area)
Average maximum phytotoxicity scoring ([3]; cotton event Evo41/4): 3 (“3” = high tolerance; 0%-10% damaged leaf area)
Average maximum phytotoxicity scoring ([3]; cotton event Evo41/5): 3 (“3” = high tolerance; 0%-10% damaged leaf area)
Average maximum phytotoxicity scoring ([3]; cotton event Evo41/6): 3 (“3” = high tolerance; 0%-10% damaged leaf area)
Average maximum phytotoxicity scoring ([3]; cotton event Evo41/7): 3 (“3” = high tolerance; 0%-10% damaged leaf area)
Average maximum phytotoxicity scoring ([3]; cotton event Evo41/8): 3 (“3” = high tolerance; 0%-10% damaged leaf area)
Average maximum phytotoxicity scoring ([3]; cotton event Evo41/9): 3 (“3” = high tolerance; 0%-10% damaged leaf area)
Average maximum phytotoxicity scoring ([3]; cotton event Evo41/10): 3 (“3” = high tolerance; 0%-10% damaged leaf area)
Average maximum phytotoxicity scoring ([3]; cotton event Evo41/11): 3 (“3” = high tolerance; 0%-10% damaged leaf area)
Average maximum phytotoxicity scoring ([3]; cotton event Evo41/12): 2 (“2” = good tolerance; 11%-15% damaged leaf area)
Average maximum phytotoxicity scoring ([3]; cotton event Evo41/13): 3 (“3” = high tolerance; 0%-10% damaged leaf area)
Average maximum phytotoxicity scoring ([3]; cotton event Evo41/14): 3 (“3” = high tolerance; 0%-10% damaged leaf area)
Average maximum phytotoxicity scoring ([3]; cotton event Evo41/15): 3 (“3” = high tolerance; 0%-10% damaged leaf area)
Number of plants categorized herbicide tolerance “0” (marginal; 41%-100% damaged leaf area) ([4]; 6.25 g Al/ha, total 12): 0
Number of plants categorized herbicide tolerance “1” (moderate; 26%-40% damaged leaf area) ([4]; 6.25 g Al/ha, total 12): 0
Number of plants categorized herbicide tolerance “2” (good; 16%-25% damaged leaf area) ([4]; 6.25 g Al/ha, total 12): 0
Number of plants categorized herbicide tolerance “3” (high; less than or equal to 15% damaged leaf area) ([4]; 6.25 g Al/ha, total 12): 12
Number of plants categorized herbicide tolerance “0” (marginal; 41%-100% damaged leaf area) ([4]; 25 g Al/ha, total 16): 1
Number of plants categorized herbicide tolerance “1” (moderate; 26%-40% damaged leaf area) ([4]; 25 g Al/ha, total 16): 1
Number of plants categorized herbicide tolerance “2” (good; 16%-25% damaged leaf area) ([4]; 25 g Al/ha, total 16): 0
Number of plants categorized herbicide tolerance “3” (high; less than or equal to 15% damaged leaf area) ([4]; 25 g Al/ha, total 16): 14
Number of plants categorized herbicide tolerance “0” (marginal; 41%-100% damaged leaf area) ([4]; 50 g Al/ha, total 4): 0
Number of plants categorized herbicide tolerance “1” (moderate; 26%-40% damaged leaf area) ([4]; 50 g Al/ha, total 4): 0
Number of plants categorized herbicide tolerance “2” (good; 16%-25% damaged leaf area) ([4]; 50 g Al/ha, total 4): 1
Number of plants categorized herbicide tolerance “3” (high; less than or equal to 15% damaged leaf area) ([4]; 50 g Al/ha, total 4): 3
Number of plants categorized herbicide tolerance “0” (marginal; 41%-100% damaged leaf area) ([4]; 75 g Al/ha, total 4): 0
Number of plants categorized herbicide tolerance “1” (moderate; 26%-40% damaged leaf area) ([4]; 75 g Al/ha, total 4): 0
Number of plants categorized herbicide tolerance “2” (good; 16%-25% damaged leaf area) ([4]; 75 g Al/ha, total 4): 0
Number of plants categorized herbicide tolerance “3” (high; less than or equal to 15% damaged leaf area) ([4]; 75 g Al/ha, total 4): 4
Number of plants categorized herbicide tolerance “0” (marginal; 41%-100% damaged leaf area) (wild type soybean Merlin; Merlin (wt), 6.25 g Al/ha): 4
Number of plants categorized herbicide tolerance “1” (moderate; 26%-40% damaged leaf area) (wild type soybean Merlin; Merlin (wt), 6.25 g Al/ha): 0
Number of plants categorized herbicide tolerance “2” (good; 16%-25% damaged leaf area) (wild type soybean Merlin; Merlin (wt), 6.25 g Al/ha): 0
Number of plants categorized herbicide tolerance “3” (high; less than or equal to 15% damaged leaf area) (wild type soybean Merlin; Merlin (wt), 6.25 g Al/ha): 0
Number of plants categorized herbicide tolerance “0” (marginal; 41%-100% damaged leaf area) (wild type soybean Merlin; Merlin, 25 g Al/ha): 4
Number of plants categorized herbicide tolerance “1” (moderate; 26%-40% damaged leaf area) (wild type soybean Merlin; Merlin, 25 g Al/ha): 0
Number of plants categorized herbicide tolerance “2” (good; 16%-25% damaged leaf area) (wild type soybean Merlin; Merlin, 25 g Al/ha): 0
Number of plants categorized herbicide tolerance “3” (high; less than or equal to 15% damaged leaf area) (wild type soybean Merlin; Merlin, 25 g Al/ha): 0
IC50 [5]: 5.01 µM
Number of plants categorized herbicide tolerance “0” (marginal; 41%-100% damaged leaf area) ([6]; 6.25 g Al/ha, total 12): 0
Number of plants categorized herbicide tolerance “1” (moderate; 26%-40% damaged leaf area) ([6]; 6.25 g Al/ha, total 12): 1
Number of plants categorized herbicide tolerance “2” (good; 16%-25% damaged leaf area) ([6]; 6.25 g Al/ha, total 12): 0
Number of plants categorized herbicide tolerance “3” (high; less than or equal to 15% damaged leaf area) ([6]; 6.25 g Al/ha, total 12): 11
Number of plants categorized herbicide tolerance “0” (marginal; 41%-100% damaged leaf area) ([6]; 25 g Al/ha, total 16): 0
Number of plants categorized herbicide tolerance “1” (moderate; 26%-40% damaged leaf area) ([6]; 25 g Al/ha, total 16): 0
Number of plants categorized herbicide tolerance “2” (good; 16%-25% damaged leaf area) ([6]; 25 g Al/ha, total 16): 0
Number of plants categorized herbicide tolerance “3” (high; less than or equal to 15% damaged leaf area) ([6]; 25 g Al/ha, total 16): 16
Number of plants categorized herbicide tolerance “0” (marginal; 41%-100% damaged leaf area) ([6]; 50 g Al/ha, total 4): 0
Number of plants categorized herbicide tolerance “1” (moderate; 26%-40% damaged leaf area) ([6]; 50 g Al/ha, total 4): 0
Number of plants categorized herbicide tolerance “2” (good; 16%-25% damaged leaf area) ([6]; 50 g Al/ha, total 4): 2
Number of plants categorized herbicide tolerance “3” (high; less than or equal to 15% damaged leaf area) ([6]; 50 g Al/ha, total 4): 2
Number of plants categorized herbicide tolerance “0” (marginal; 41%-100% damaged leaf area) ([6]; 75 g Al/ha, total 4): 0
Number of plants categorized herbicide tolerance “1” (moderate; 26%-40% damaged leaf area) ([6]; 75 g Al/ha, total 4): 0
Number of plants categorized herbicide tolerance “2” (good; 16%-25% damaged leaf area) ([6]; 75 g Al/ha, total 4): 0
Number of plants categorized herbicide tolerance “3” (high; less than or equal to 15% damaged leaf area) ([6]; 75 g Al/ha, total 4): 4

Reference: patent US10508089B2, “Use of N-(1,3,4-Oxadiazol-2-yl)arylcarboxamides or their salts for controlling unwanted plants in areas of transgenic crop plants being tolerant to HPPD inhibitor herbicides” (BASF SE, priority 2014, dated 2019)
